Laboratory results reported in PMC8091166 (Journal of the American Chemical Society, 2017).

Legend:
[1] = system: KB-3-1 cervical cancer cell line; assay: Cell viability in KB-3-1 cells; assay type: cell-based
[2] = system: KBCP20 cisplatin-resistant cervical cancer cell line; assay: Cell viability in KBCP20 cells; assay type: cell-based
[3] = system: A2780 ovarian cancer cell line; assay: Cell viability in A2780 cells; assay type: cell-based
[4] = system: A2780CP70 cisplatin-resistant ovarian cancer cell line; assay: Cell viability in A2780CP70 cells; assay type: cell-based
[5] = system: A549 lung cancer cell line; assay: Cell viability in A549 cells; assay type: cell-based
[6] = system: A549 CisR cisplatin-resistant lung cancer cell line; assay: Cell viability in A549 CisR cells; assay type: cell-based
[7] = system: H460 lung cancer cell line; assay: Cell viability in H460 cells; assay type: cell-based
[8] = system: H460 CisR cisplatin-resistant lung cancer cell line; assay: Cell viability in H460 CisR cells; assay type: cell-based
[9] = system: MRC-5 normal lung fibroblasts; assay: Cell viability in MRC-5 cells; assay type: cell-based
HeLa cells [10] = assay: Cell cycle analysis; assay type: cell-based
HeLa cells [11] = assay: Cell viability in the presence of inhibitors; assay type: cell-based; conditions: 15 μM Z-VAD-FMK
[12] = system: PARP, cleaved PARP, LC3, ERK, p-ERK in HeLa cells; assay: Western blot analysis of protein expression; assay type: cell-based
HeLa cells [13] = assay: MTT assay, in vitro anticancer activity in HeLa cells
[14] = Capacity factor on a C18 RP-HPLC column; assay type: physicochemical; conditions: isocratic 40:60 MeCN:H2O, 0.1% TFA; for MeCN Complex Capacity Factor: MeCN adduct of the complex
[15] = system: intracellular reactive oxygen species (ROS) in HeLa cells; assay: ROS analysis with DCFDA and flow cytometry; assay type: cell-based; conditions: DCFDA
HeLa cells [16] = assay: Annexin V/PI assay; assay type: cell-based
[17] = system: mitochondrial membrane potential (MMP) in HeLa cells; assay: JC-1 assay; assay type: cell-based; conditions: 13 at 5 or 10 μM

N.N.[Cl][Pt][Cl] [Cisplatin, cisplatin]
IC50 [1]: 1000 ± 300 nM | IC50 [2]: 36000 ± 7000 nM | IC50 [3]: 230 ± 70 nM | IC50 ([4]; A2780CP70 cells): 8200 ± 1800 nM | RF (A2780), resistance factor ([4]; IC50 in A2780CP70 divided by IC50 in A2780): 36 | IC50 [5]: 3000 ± 1800 nM | IC50 ([6]; A549 CisR cells): 12400 ± 8500 nM | RF (A549), resistance factor ([6]; IC50 in A549 CisR divided by IC50 in A549): 4.1 | IC50 [7]: 750 ± 430 nM | IC50 ([8]; H460 CisR cells): 3400 ± 1600 nM | RF (H460), resistance factor ([8]; IC50 in H460 CisR divided by IC50 in H460): 4.5 | IC50 [9]: 430 ± 140 nM | cell cycle arrest phase (HeLa cells [10]): inhibits cells predominantly in the S-phase | change of IC50 in the presence of Z-VAD-FMK (HeLa cells [11]): increased by a factor of four | expression levels of PARP, cleaved PARP, LC3, ERK, p-ERK [12]: induced the increase of cleaved PARP levels | IC50 (HeLa cells [13]; read-out: 50% growth inhibitory concentration (IC50), MTT assay): 3000 ± 1200 nM

COC(=O)c1ccnc(-c2cc(C(=O)OC)ccn2)c1.O.[C-]#[O+].[C-]#[O+].[C-]#[O+].[Re+] [Complex 11]
MeCN Complex Capacity Factor [14]: 8.2 | Aqua Complex Capacity Factor [14]: 4.2 | relative cytotoxicity among the complexes (HeLa cells [13]): least active

O.[C-]#[O+].[C-]#[O+].[C-]#[O+].[Re+].c1ccc(-c2ccnc3c2ccc2c(-c4ccccc4)ccnc23)cc1 [Complex 14]
MeCN Complex Capacity Factor [14]: >17 | relative cytotoxicity among the complexes (HeLa cells [13]): substantially diminished relative to that of 13

OO [Complex H2O2, H2O2]
increase in the intracellular ROS [15]: greater than 30 fold

COc1cc([C@@H]2c3cc4c(cc3[C@@H](O[C@@H]3O[C@@H]5CO[C@@H](C)O[C@H]5[C@H](O)[C@H]3O)[C@H]3COC(=O)[C@H]23)OCO4)cc(OC)c1O [etoposide]
effect of pan-caspase inhibitor Z-VAD-FMK in the annexin V assay (HeLa cells [16]): reduce the apoptotic population

carbonyl cyanide m-chlorophenyl hydrazine [CCCP]
depolarization of the MMP (JC-1 aggregates) [17]: substantial reduction in the number of JC-1 aggregates
